Reference: patent EP2272342B1, “Herbicidal compositions” (BASF SE, priority 1993, dated 1994)

What was measured:
echinochloa crus galli = assay: Small field units in a maize field, 3-way tank-mix spray: weed control (Example 4); format: in vivo; conditions: 1500 a.i./ha; 14 days after treatment
Excerpt: (§1) Small field units in a maize field, infested with echinochloa crus galli, solanum nigrum and chenopodium album are sprayed with a tank-mix suspension of dimethenamid, sulcotrione and atrazine. The stage of the weeds is "full tillering" of echinochloa and "6-8 leaves stage" for solanum and chenopodium. The lot size is 8 meters in length and 3 meters in broadth. The application rates are 1.08 kg/ha of dimethenamid, 150 or 210 g/ha of sulcotrione and 750 g/ha of atrazine. 14 days after treatment the efficacy is evaluated.

Solanum/Chenopodium = assay: as above; format: in vivo, solanum nigrum and chenopodium album; conditions: 1500 a.i./ha; 14 days after treatment
Protocol: as §1, with “The application rates are 1.08 kg/ha of dimethenamid, 150 or 210 g/ha of sulcotrione and 750 g/ha of atrazine.” left out

large crabgrass = assay: Field trial in corn, tankmix at early post-emergence: weed control (Example 2); format: in vivo
Protocol: A field trial is carried out employing FRONTIER® 7.5 EC and ACCENT® 75 WDG in control of large crabgrass in corn. Application is as tankmix combination at early post-emergence of the weeds (3 and 4 leaf stages). Application rates of a.i. are 1.5 and 0.75 kg/ha for dimethenamid and 37.2 and 19.2 g/ha for nicosulfuron. Combined application of 0.75 kg/ha of dimethenamid and 19.2 g/ha of nicosulfuron gave 85% control with negligible corn damage compared with 35% of nicosulfuron applied alone at 19.2 g/ha and 72% for dimethenamid at a higher rate of […]. Combined application at the higher rate of dimethenamid with 37.2 g/ha of nicosulfuron gave an even more dramatic effect with 95% control compared with 72% for dimethenamid and only 45% for nicosulfuron each alone.

cyperus rotundus = assay: Field trial in sugar cane plots, tank mix by backpack sprayer: weed control (Example 5); format: in vivo
Protocol: A field trial is carried out on plots (2 x 20 m) planted with sugar cane and infested with cyperus rotundus in the first or second growing stage and sprayed with a backpack sprayer in different concentrations in a tank mix. The amount of liquid spray broth is 400 I/ha.
The application rates are 2.7 kg/ha of dimethenamid with 60 g/ha of chlorimuron or with 1.6 kg/ha of a fixed ratio mixture of chlorimuron and diuron (1 : 19) which is commercially available as FRONT®. Visual evaluation is done 30 or 60 days after treatment (DAT) in percentage of control. The expected additive effect value is calculated according to the method of Colby: […]

CCNc1nc(Cl)nc(NC(C)C)n1 [Atrazine, atrazine]
Echinochloa control (echinochloa crus galli): 23% | Solanum/Chenopodium control (Solanum/Chenopodium): 16%

COCC(C)N(C(=O)CCl)c1c(C)csc1C (centres unmarked) [Dimethenamid, 2-chloro-N-(2,4-dimethyl-3-thienyl)-N-(2-methoxy-1-methylethyl)-acetamide]
control (large crabgrass; dimethenamid alone at a higher rate of 1.25 g/ha (so in the source)): 72% | control (large crabgrass; dimethenamid alone, higher rate (second comparison)): 72% | Cyperus Control (DAT) (cyperus rotundus; 2.25 kg a.i./ha, light to medium soil, 30 DAT): 23 (30 DAT) % | Cyperus Control (DAT) (cyperus rotundus; 2.7 kg a.i./ha, heavy soil, 60 DAT): 10 (60 DAT) % | Cyperus Control (DAT) (cyperus rotundus; 2.7 kg a.i./ha, light to medium soil, 30 DAT): 27 (30 DAT) % | Cyperus Control (DAT) (cyperus rotundus; 2.7 kg a.i./ha, light to medium soil, 60 DAT): 19 (60 DAT) %

COc1cc(OC)nc(NC(=O)NS(=O)(=O)c2ncccc2C(=O)N(C)C)n1 [nicosulfuron]
control (large crabgrass; nicosulfuron alone, 37.2 g/ha): 45% | control (large crabgrass; nicosulfuron applied alone at 19.2 g/ha): 35%

chlorimuron
Cyperus Control (DAT) (cyperus rotundus; 0.06 kg a.i./ha, light to medium soil, 30 DAT): 58 (30 DAT) %
